This is an account of results in patent US20140275049A1, “SUBSTITUTED PYRAZOLE ANALOGS As RAR ANTAGONISTS” (Eli Lilly and Company, priority 2011, published 2014).

One assay concerns the target T1, RARα (Homo sapiens, UniProt P10276).
T1 construct: made in house; host or cells: baculovirus expression system
T1 sequence (P10276 1-462): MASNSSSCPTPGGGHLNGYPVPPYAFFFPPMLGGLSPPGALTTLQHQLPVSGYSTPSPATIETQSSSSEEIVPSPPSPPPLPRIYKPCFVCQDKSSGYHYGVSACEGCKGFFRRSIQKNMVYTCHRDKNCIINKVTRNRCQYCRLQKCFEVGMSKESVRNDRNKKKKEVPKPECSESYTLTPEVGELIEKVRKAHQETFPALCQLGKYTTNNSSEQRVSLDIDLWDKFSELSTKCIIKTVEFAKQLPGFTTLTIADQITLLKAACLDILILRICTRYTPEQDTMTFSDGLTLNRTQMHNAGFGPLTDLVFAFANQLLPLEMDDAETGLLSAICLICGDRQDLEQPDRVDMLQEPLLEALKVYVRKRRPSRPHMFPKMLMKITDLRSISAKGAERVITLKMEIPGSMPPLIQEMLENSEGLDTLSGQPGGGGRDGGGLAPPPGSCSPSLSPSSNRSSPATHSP
T1 sequence (P19793 1-462 partner): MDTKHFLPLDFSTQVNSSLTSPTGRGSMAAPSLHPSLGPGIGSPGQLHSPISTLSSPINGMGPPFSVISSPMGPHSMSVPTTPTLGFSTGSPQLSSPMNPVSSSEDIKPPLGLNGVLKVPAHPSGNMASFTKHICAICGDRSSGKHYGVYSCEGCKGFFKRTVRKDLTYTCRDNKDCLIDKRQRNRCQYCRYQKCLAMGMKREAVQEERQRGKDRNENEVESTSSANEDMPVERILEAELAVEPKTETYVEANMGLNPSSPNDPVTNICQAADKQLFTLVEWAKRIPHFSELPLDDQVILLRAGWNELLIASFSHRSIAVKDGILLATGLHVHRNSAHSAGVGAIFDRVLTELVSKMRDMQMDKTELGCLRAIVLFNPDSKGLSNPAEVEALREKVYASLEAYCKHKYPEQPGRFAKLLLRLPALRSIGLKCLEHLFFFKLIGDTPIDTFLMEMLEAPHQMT
Description: RARα binding assay (SPA, 3H-TTNPB competition). As to conditions: RARα/RXRα heterodimer. From the text: Compounds can be evaluated for binding to RARα, β and γ by measuring their ability to competitively bind to the RAR receptors when dimerized with the binding partner RXRα. Competitive binding assays may be carried out by Scintillation Proximity Assay (SPA) technology using the RARα, β or γ heterodimer (with RXRα as a partner with all the RARs) receptors prepared in a baculovirus expression system. Use the biotinylated oligonucleotide: 5′-[…]-3′ for binding of receptor to yttrium silicate streptavidin-coated SPA beads. Per well, preincubate […] with 82.7 μg SPA beads in a binding buffer containing 10 mM HEPES pH 7.8, 80 mM KCl, 0.5 mM MgCl2, 1 mM DTT, 0.5% CHAPS and 16.6 μg bovine serum albumin for 30 min at room temperature. Then spin the mixture at 2,000 rpm for 3 min to pelletize the beads-oligo mix. Remove the supernatant and resuspend the beads-oligo pellet in the same binding buffer as above, but which in addition now also contain 14% glycerol, 5 μg of sheared salmon sperm DNA, 0.5 μg of RARα, 1.0 μg of RARβ, or 0.25 μg of RARγ receptor, respectively. Carry out the binding assays in the presence of ˜11.3 μCi of ^3H 4-[(E)-2-(5,6,7,8-tetrahydro-5,5,8,8-tetramethyl-2-naphthalenyl)-1-propenyl]benzoic acid (TTNPB), and multiple concentrations of test compound ranging from (5 nM to 10 μM). Non-specific binding may be determined in the presence of 1 μM unlabeled TTNPB. Use the data to calculate an IC50 for compounds after fitting the dose-response curves to a 4-parameter logistic fit. Use the Cheng-Prusoff equation to convert IC50 (nM) values for compounds to Ki, and the Kd may be determined by saturation binding.

Another assay deals with MIA model of pain. Description: Monosodium iodoacetate (MIA) model of pain. Type of assay: in vivo, rat. As to conditions: rats, dose of 0.1 mg/kg, dosed once on day 9 post MIA, measured 2 h post dosing. The text has this: The injection of monoiodoacetic acid (MIA) into the knee joint of rats produces an acute inflammatory insult, which then develops into chronic degeneration of the joint tissues in the injected joint. The pain resulting from the joint injury can be measured via differential weight bearing of the hind legs using an incapacitance tester. […] Efficacy is routinely measured by the ability of a compound to partially normalize weight distribution. The maximal efficacy that can be achieved in the standard MIA is dependent on the mechanism being studied; however, for many mechanisms the maximal efficacy achieved results in a 25%-50% reduction in the weight bearing differential.
Use Male Lewis rats approximately 150-170 g and between 6-8 weeks of age. Let the animals acclimate to the environment for at least 72 h. […]
Incapacitance Tester Readings—Incapacitance Testers (Columbus Instruments International, Columbus, Ohio) for weight bearing measurements. […] A total of three one second readings are taken to reflect the amount of pressure exerted on both the left and right hind paw while the rat is positioned in the chamber. The force exerted by each hind paw is measured in grams and calculated as the left hind paw weight distribution-right hind paw weight distribution. Thus, the final paw weight distribution for each animal is an average of the three one second readings. […]

As a reminder, the Ki is the dissociation constant of the complex between target and ligand, obtained from inhibition or displacement. The low end stands for tighter binding, the high end for weaker binding. The compound `CN1CCN(C(=O)c2ccc(-n3nc(-c4ccc(C(=O)O)cc4)cc3-c3cc(C(C)(C)C)cc(C(C)(C)C)c3)cc2)CC1` [Example 1, 4-[5-(3,5-Di-tert-butylphenyl)-1-[4-(4-methylpiperazine-1-carbonyl)phenyl]pyrazol-3-yl]benzoic Acid] displayed an inhibition constant (Ki) on RARα greater than 970 nM. Besides, in the assay on MIA model of pain, the “inhibition of pain (hind paw weight bearing differential) compared to vehicle” value is given as “significantly inhibits pain”.

At RARα, `CC(C)(C)c1cc(-c2cc(-c3ccc(C(=O)O)cc3)nn2-c2ccc(C(=O)N3CCOCC3)cc2)cc(C(C)(C)C)n1` [Example 8, 4-[5-(2,6-Di-tert-butyl-4-pyridyl)-1-[4-(morpholine-4-carbonyl)phenyl]pyrazol-3-yl]benzoic acid] gave an inhibition constant (Ki) of 357 nM.

Compound `CC(C)Sc1cc(-c2cc(-c3ccc(C(=O)O)cc3)nn2-c2ccc(C(=O)N(C)C)cc2)cc(C(C)(C)C)c1` [Example 12, 4-[5-(3-tert-Butyl-5-isopropylsulfanyl-phenyl)-1-[4-(dimethylcarbamoyl)phenyl]pyrazol-3-yl]benzoic Acid] came in with a Ki at RARα of 386 nM.

Take `CC(C)(C)c1cc(-c2cc(-c3ccc(C(=O)O)cc3)nn2-c2ccc(S(C)(=O)=O)cc2)cc(C(C)(C)C)c1` [Example 19, 4-[5-(3,5-Di-tert-butylphenyl)-1-(4-methylsulfonylphenyl)pyrazol-3-yl]benzoic Acid]: on RARα, the affinity corresponds to a Ki of 285 nM.
